Test results published in PubChem BioAssay (NCI).
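Compound exposure: 48 hours, 5 concentrations, 96-well plates. TGI is the concentration that stops growth completely.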

Key:
Experiment in all cases: NCI tumour cell line growth inhibition, 48 h
[1] = system: MDA-MB-231 breast
[2] = system: OVCAR-5 ovarian
[3] = system: ACHN renal
[4] = system: PC-3 prostate
[5] = system: SK-OV-3 ovarian
[6] = system: SN12C renal
[7] = system: HCC-2998 colon
[8] = system: SR leukemia
[9] = system: SNB-19 CNS
[10] = system: EKVX NSCLC
[11] = system: SK-MEL-2 melanoma
[12] = system: MCF7 breast
[13] = system: LOX IMVI melanoma
[14] = system: HOP-92 NSCLC
[15] = system: SF-295 CNS
[16] = system: T-47D breast
[17] = system: CCRF-CEM leukemia
[18] = system: OVCAR-4 ovarian
[19] = system: SNB-75 CNS
[20] = system: TK-10 renal
[21] = system: MOLT-4 leukemia
[22] = system: HCT-116 colon
[23] = system: A549 NSCLC
[24] = system: SK-MEL-5 melanoma
[25] = system: NCI-H226 lung
[26] = system: UO-31 renal
[27] = system: SK-MEL-28 melanoma
[28] = system: COLO 205 colon
[29] = system: MDA-MB-435
[30] = system: SF-539 CNS
[31] = system: SF-268 CNS
[32] = system: HL-60(TB) leukemia
[33] = system: SW-620 colon
[34] = system: NCI-H460 lung
[35] = system: IGROV1 ovarian
[36] = system: NCI-H522 lung
[37] = system: M14 melanoma
[38] = system: 786-0 renal
[39] = system: MDA-N
[40] = system: RXF 393 renal
[41] = system: KM12 colon
[42] = system: NCI-H23 lung
[43] = system: HCT-15 colon
[44] = system: RPMI-8226 leukemia
[45] = system: BT-549 breast
[46] = system: DU-145 prostate
[47] = system: MALME-3M melanoma
[48] = system: HT29 colon
[49] = system: OVCAR-8 ovarian
[50] = system: UACC-257 melanoma
[51] = system: OVCAR-3 ovarian
[52] = system: K-562 leukemia
[53] = system: NCI/ADR-RES ovarian
[54] = system: HOP-62 NSCLC
[55] = system: U251 CNS
[56] = system: CAKI-1 renal

SMILES: Cc1cc(C)nc(NS(=O)(=O)c2ccc(NNc3c4ccccc4nc4c(C(=O)Nc5ccc(S(=O)(=O)N=C(N)N)cc5)cccc34)cc2)n1
- TGI [1]: > 100 µM
- TGI [2]: > 100 µM
- TGI [3]: > 100 µM
- TGI [4]: > 100 µM
- TGI [5]: > 100 µM
- TGI [6]: > 100 µM
- TGI [7]: > 100 µM
- TGI [8]: 76.1 µM
- TGI [9]: > 100 µM
- TGI [10]: > 100 µM
- TGI [11]: 61.5 µM
- TGI [12]: > 100 µM
- TGI [13]: > 100 µM
- TGI [14]: > 100 µM
- TGI [15]: > 100 µM
- TGI [16]: > 100 µM
- TGI [17]: 98 µM
- TGI [18]: > 100 µM
- TGI [19]: > 100 µM
- TGI [20]: > 100 µM
- TGI [21]: > 100 µM
- TGI [22]: > 100 µM
- TGI [23]: > 100 µM
- TGI [24]: > 100 µM
- TGI [25]: > 100 µM
- TGI [26]: > 100 µM
- TGI [27]: 85 µM
- TGI [28]: > 100 µM
- TGI [29]: > 100 µM
- TGI [30]: > 100 µM
- TGI [31]: > 100 µM
- TGI [32]: > 100 µM
- TGI [33]: > 100 µM
- TGI [34]: > 100 µM
- TGI [35]: > 100 µM
- TGI [36]: > 100 µM
- TGI [37]: > 100 µM
- TGI [38]: > 100 µM
- TGI [39]: > 100 µM
- TGI [40]: > 100 µM
- TGI [41]: > 100 µM
- TGI [42]: > 100 µM
- TGI [43]: > 100 µM
- TGI [44]: > 100 µM
- TGI [45]: > 100 µM
- TGI [46]: > 100 µM
- TGI [47]: > 100 µM
- TGI [48]: 77.7 µM
- TGI [49]: > 100 µM
- TGI [50]: > 100 µM
- TGI [51]: 96.8 µM
- TGI [52]: > 100 µM
- TGI [53]: > 100 µM
- TGI [54]: > 100 µM
- TGI [55]: 96.8 µM
- TGI [56]: > 100 µM
